# Source: patent publication US20240424053A1, “METHODS AND COMPOSITIONS FOR PROVIDING MYOCARDIAL PROTECTION AND TREATING MYOCARDIAL STRESS AND FIBROSIS” (Tufts Medical Center, Inc., priority 2021, published 2024)
# Read-outs that look alike come from different tables or passages of the source. Where a SMILES comes first, the peptide text is derived from it. The star is where a group is joined. Palmitoyl = CCCCCCCCCCCCCCCC(=O)*
# Assays:
# [1] = molecular target: T1, PAR1 (Mus musculus, UniProt P30558); experiment: thoracic aortic constriction (TAC) LV pressure overload model of HFrEF in mice; assay type: in vivo
# T1 construct: endogenous in cells; host or cells: male C57BL/6N mice, in vivo
# T1 sequence (P30558 22-430): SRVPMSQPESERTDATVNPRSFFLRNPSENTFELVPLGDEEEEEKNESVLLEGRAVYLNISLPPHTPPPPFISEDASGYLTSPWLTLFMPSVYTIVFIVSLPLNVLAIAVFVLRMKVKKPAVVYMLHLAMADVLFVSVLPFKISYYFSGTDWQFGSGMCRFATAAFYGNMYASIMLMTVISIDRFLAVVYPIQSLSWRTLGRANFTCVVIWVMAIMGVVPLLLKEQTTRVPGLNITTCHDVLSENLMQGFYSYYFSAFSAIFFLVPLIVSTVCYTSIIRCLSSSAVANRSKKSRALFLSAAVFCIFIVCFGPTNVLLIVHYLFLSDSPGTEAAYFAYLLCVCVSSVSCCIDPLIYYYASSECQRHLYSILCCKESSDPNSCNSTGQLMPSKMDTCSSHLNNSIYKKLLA
# Procedure: Male C57BL/6N mice were treated daily for 7 weeks with vehicle or 10 mg/kg PZ-128 sc following 25G transaortic constriction (TAC) or sham surgery (Richards et al., Scientific Reports 9(1):5844, 2019) (n=5-7). (FIG. 4A) Photomicrographs of interstitial fibrosis in cardiac sections stained with sirius red from Sham and TAC animals treated with Veh or PZ-128. (FIG. 4B) Interstitial collagen area from animals in A was quantified along with (FIG. 4C) Col1a1 expression by Q-PCR. (FIGS. 4D-4E) LV fractional shortening and ejection fraction were quantified by ECHO. (FIG. 4F) The outline of cardiomyocytes was identified by wheat germ agglutinin (WGA-green) staining with (FIG. 4G) mean myocyte area digitally quantified. (FIG. 4H) Mean weight (mg) of LV normalized to tibia length (mm).
# (FIG. 5A) Photomicrographs of CD11 b+monocytes/macrophages and CD4+ T cells in Sham vs TAC in mice treated with vehicle or PZ-128 as in FIGS. 4A-4H, with CD11 b staining area quantified in FIG. 5B and T cells quantified in FIG. 5C.
# TAC vs Sham mice were treated for 7 weeks with vehicle or PZ-128, and cardiac fibrosis and LV hypertrophy indices measured. […] This may indicate that unlike upstream thrombin (Dong et al., Thromb. Res. 159:58-64, 2017) or factor Xa (Yurista et al., Cardiovasc. Drugs Ther. 35(5):953-963, 2021) blockade, inhibition of PAR1 may effectively suppress cardiac hypertrophy by reducing the total ventricular mass, potentially by reducing MMP1-PAR1 driven fibrosis/remodeling and cardiac fibroblast expansion.
# To obtain additional data to support PAR1 as a potentially important contributor to HF pathogenesis via inflammation, we investigated the effect of PZ-128 on monocyte/macrophage and CD4+ T cells in the 7-week TAC LV pressure overload model. As shown in FIGS. 5A-5B, there was a marked amount of CD11 b+monocytes/macrophages in the cardiac tissue from the TAC animals which was suppressed by nearly 90% by PZ-128 treatment.
# [2] = molecular target: T2, PAR1 (Homo sapiens, UniProt P25116); conditions: cited from earlier work
# T2 construct: delivered intravenously in 100 patients with coronary artery disease (CAD) and acute coronary syndrome (ACS) undergoing cardiac catheterization; endogenous in cells; host or cells: patients of the TRIP-PCI trial (platelets ex vivo; whole body in vivo)
# T2 sequence (P25116 22-425): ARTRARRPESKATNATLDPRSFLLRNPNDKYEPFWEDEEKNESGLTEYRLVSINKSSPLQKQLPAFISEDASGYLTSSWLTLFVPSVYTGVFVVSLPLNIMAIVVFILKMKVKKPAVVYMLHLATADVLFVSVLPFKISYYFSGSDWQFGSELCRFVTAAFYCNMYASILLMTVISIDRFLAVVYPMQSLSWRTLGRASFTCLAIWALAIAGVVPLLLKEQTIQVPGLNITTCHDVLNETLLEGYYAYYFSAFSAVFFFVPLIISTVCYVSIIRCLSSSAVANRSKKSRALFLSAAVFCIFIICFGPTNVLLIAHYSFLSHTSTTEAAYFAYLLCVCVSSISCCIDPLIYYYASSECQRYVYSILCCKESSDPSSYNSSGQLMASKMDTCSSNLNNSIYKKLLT
# [3] = molecular target: T2, PAR1; conditions: cited from earlier work; remark: listed apart in the source
# [4] = 7 weeks, Q-PCR relative to GAPDH mRNA, preliminary
compound,measurement,setting,value
"CCCCCCCCCCCCCCCC(=O)N[C@@H](CCCCN)C(=O)N[C@@H](CCCCN)C(=O)N[C@@H](CO)C(=O)N[C@@H](CCCNC(=N)N)C(=O)N[C@@H](C)C(=O)N[C@@H](CC(C)C)C(=O)N[C@@H](Cc1ccccc1)C(N)=O [PZ-128, Palmitate-KKSRALF-NH2] (Palmitoyl-KKSRALF-NH2)",LV mass (adjusted for tibia length),[1]; 10 mg/kg sc daily for 7 weeks,highly significant protective effect
same,TAC-induced loss in ejection fraction by ECHO,[1]; 10 mg/kg sc daily for 7 weeks,significant protective effects
same,TAC-induced loss in fractional shortening by ECHO,[1]; 10 mg/kg sc daily for 7 weeks,significant protective effects
same,interstitial collagen (cardiac fibrosis) relative to vehicle,[1]; 10 mg/kg sc daily for 7 weeks,dramatic anti-fibrotic effects
same,suppression of the increase in mean myocyte cross-sectional area,[1]; 10 mg/kg sc daily for 7 weeks,no effect
same,Col1A1 expression relative to vehicle,"[1]; 10 mg/kg sc daily for 7 weeks, Q-PCR",dramatic anti-fibrotic effects
same,suppression of CD11b+ monocytes/macrophages in cardiac tissue,[1]; 7 weeks,~90%
same,CTGF gene expression,[1]; [4],reduces expression
same,Cyr61 gene expression,[1]; [4],reduces expression
same,IL-6 gene expression,[1]; [4],reduces expression
same,TGFβ gene expression,[1]; [4],reduces expression
same,TNFα gene expression,[1]; [4],reduces expression
same,T cell infiltration (CD4+),"[1]; 7 weeks, vehicle mice significant increases",non-significant increases
same,overall safety and tolerability,"[2]; 0.3 and 0.5 mg/kg, single 2-h intravenous infusion, 100 patients",safe and well-tolerated
same,hazard ratio of a MACE/myonecrosis event versus placebo,"[2]; PZ-128 treated groups, nonsignificant decrease",0.81
same,major adverse coronary events (MACE),"[2]; at 30 days, combined PZ-128 dose groups (placebo 6%, P=0.13)",0%
same,major adverse coronary events (MACE),"[2]; at 90 days, combined PZ-128 dose groups (placebo 6%, P=0.29)",2%
same,MACE and myocardial injury within 30 days,"[2]; subgroup with elevated baseline cardiac troponin I (placebo 83%, P=0.02)",31%
same,primary safety endpoint: bleeding vs vehicle,[2]; up to 30 days posttreatment,not significantly different
same,PAR1 aggregation response recovered,[3]; at 14 days post-dose,50%
same,time at which inhibition of SFLLRN-induced platelet aggregation could be detected,[3]; post-dose,≤ 1 h
same,time of peak inhibition of SFLLRN-induced platelet aggregation,[3]; post-dose,24 h
